Assay results reported in publication PMC12892976, “Alkylation-based optimization of antifungal FPPS inhibitors yields a potent, broad-spectrum lipophilic zoledronate derivative” (mBio, 2025).
Converted amounts (≈) assume the structure as drawn. Where two headings read alike, the source gives them in different places.

Columns and labels:
Saccharomyces cerevisiae [1] = assay: MIC/MFC broth microdilution (CLSI); format: cell-based; details: Saccharomyces cerevisiae S288c
Description: (§1) Antifungal susceptibility was determined by broth microdilution according to the CLSI guidelines described in M27-Ed4 ([16]). […] MFC was determined by back-plating drug-treated cultures from MIC broths onto SDA plates. The MFC was defined as the lowest concentration from which no colonies could be cultured.

Candida albicans [2] = assay: MIC/MFC broth microdilution (CLSI); format: cell-based; details: Candida albicans SC5314
Description: as §1

[3] = tested on: Cryptococcus deuterogattii; assay: checkerboard drug interaction (FICI, MICc);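 as to all read-outs here: simplified diagonal checkerboard screen pairing antifungal drugs with FPPS inhibitors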; format: cell-based; details: C. deuterogattii; for INH FD (MIC-MICc fold decrease): fold decrease of inhibitor MIC
Description: (§2) Drug interactions between antifungals and FPPS inhibitors were investigated using a simplified checkerboard diagonal screening method ([45]). […] FICIs were determined according to the Loewe additivity model ([17]).

Cryptococcus neoformans [4] = assay: checkerboard drug interaction (FICI, MICc);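 as to all read-outs here: antifungal plus FPPS inhibitor pairs tested against Cryptococcus neoformans by simplified diagonal checkerboard screening, FICI computed under the Loewe additivity model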; format: cell-based; details: C. neoformans; for INH FD (MIC-MICc fold decrease): fold decrease of inhibitor MIC
Description: as §2

Saccharomyces cerevisiae [5] = assay: checkerboard drug interaction (FICI, MICc); format: cell-based; design: INH MICc / INH MICc (ITR:INH) / INH MICc (KET:INH) / INH MICc (FLC:INH): unit not given beside the values;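 also: simplified diagonal checkerboard screen pairing antifungals with FPPS inhibitors, FICI calculated under the Loewe additivity model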
Candida glabrata [6] = assay: checkerboard drug interaction (FICI, MICc);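 as to all read-outs here: simplified diagonal checkerboard screen pairing antifungals with FPPS inhibitors, FICI calculated under the Loewe additivity model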; format: cell-based; details: C. glabrata; for INH FD (MIC-MICc fold decrease): fold decrease of inhibitor MIC
Description: as §2

Candida albicans [7] = assay: checkerboard drug interaction (FICI, MICc);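 as to all read-outs here: antifungal plus FPPS inhibitor combinations on Candida albicans tested by a simplified diagonal checkerboard screen, with FICI calculated under the Loewe additivity model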; format: cell-based; details: C. albicans; for INH FD (MIC-MICc fold decrease): fold decrease of inhibitor MIC
Description: as §2

Aspergillus flavus [8] = assay: checkerboard drug interaction (FICI, MICc);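 also: simplified diagonal checkerboard screen pairing azole antifungals with FPPS inhibitors, FICI calculated under the Loewe additivity model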; format: cell-based; design: INH MICc (KET:INH) / INH MICc (FLC:INH): unit not given beside the values; details: A. flavus
Aspergillus fumigatus [9] = assay: checkerboard drug interaction (FICI, MICc); format: cell-based;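 also: simplified diagonal checkerboard screen pairing antifungals with FPPS inhibitors against Aspergillus fumigatus, with FICI calculated under the Loewe additivity model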
Description: as §2

Trichophyton rubrum [10] = assay: checkerboard drug interaction (FICI, MICc);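 also: simplified diagonal checkerboard screen pairing azole antifungals with FPPS inhibitors, FICI calculated under the Loewe additivity model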; format: cell-based; details: T. rubrum
Description: as §2

HEK-293T cells = assay: MTT reduction cytotoxicity assay; format: cell-based; details: Homo sapiens, HEK-293T, 72 h, MTT, 72 h
eight fungal species [11] = assay: MIC/MFC summary across the eight fungal species of Table 1; format: cell-based
Description: The antifungal activity of these compounds was evaluated according to CLSI guidelines ([16]).

eight fungal species [12] = assay: checkerboard interaction with azoles, summary across the eight species; format: cell-based
From the text: Synergy between lipophilic FPPS inhibitors and azole antifungals was investigated by determining the fractional inhibitory concentration index (FICI) (Fig. 2; Table S1 Fig. S1) ([17]). […]. Derivatives PLA9 and 11, and PDA9, 11, and 12 antagonized azoles in C. albicans, C. neoformans, and C. deuterogattii, yet were largely synergistic in C. glabrata and S. cerevisiae. […].

[13] = tested on: Cryptococcus deuterogattii; assay: MIC/MFC broth microdilution (CLSI); details: Cryptococcus deuterogattii;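 also: broth microdilution per CLSI M27-Ed4. MFC is the lowest concentration yielding no colonies when MIC broths are subcultured onto SDA plates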
Description: as §1

Cryptococcus neoformans [14] = assay: MIC/MFC broth microdilution (CLSI); details: Cryptococcus neoformans;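 also: susceptibility testing followed the CLSI M27-Ed4 broth microdilution document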
Description: as §1

Candida glabrata [15] = assay: MIC/MFC broth microdilution (CLSI); details: Nakaseomyces glabratus, CBS138;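 also: broth microdilution following CLSI M27-Ed4, MFC taken as the lowest drug level yielding no growth once MIC wells were subcultured on SDA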
Description: as §1

Aspergillus flavus [16] = assay: MIC/MFC broth microdilution (CLSI); details: ATCC204304
Description: as §1

Aspergillus fumigatus [17] = assay: MIC/MFC broth microdilution (CLSI); details: ATCC204305
Description: as §1

Trichophyton rubrum [18] = assay: MIC/MFC broth microdilution (CLSI); details: Trichophyton rubrum
Description: as §1

[19] = FLC:INH combination, MIC of the inhibitor in combination with FLC
[20] = FLC:INH combination, fold decrease of FLC MIC
[21] = ITR:INH combination, MIC of the inhibitor in combination with ITR
[22] = ITR:INH combination, fold decrease of ITR MIC
[23] = KET:INH combination, MIC of the inhibitor in combination with KET
[24] = KET:INH combination, fold decrease of KET MIC
[25] = Fractional Inhibitory Concentration Index, fluconazole + inhibitor
[26] = Fractional Inhibitory Concentration Index, itraconazole + inhibitor
[27] = Fractional Inhibitory Concentration Index, ketoconazole + inhibitor
[28] = MIC of the inhibitor in combination with fluconazole
[29] = MIC of the inhibitor in combination with itraconazole
[30] = MIC of the inhibitor in combination with ketoconazole
[31] = MIC-MICc fold decrease of fluconazole, negative = increase
[32] = MIC-MICc fold decrease of itraconazole, negative = increase
[33] = MIC-MICc fold decrease of ketoconazole, negative = increase
[34] = MIC-MICc fold decrease of the inhibitor, with fluconazole
[35] = MIC-MICc fold decrease of the inhibitor, with itraconazole
[36] = MIC-MICc fold decrease of the inhibitor, with ketoconazole

## CCCCCCCCCCCN1CCC[C@H]1C(=O)N[C@@H](CC(=O)OC)C(=O)OC [dmPLA11]
Saccharomyces cerevisiae [1]
  MFC: 8 µg/mL (≈ 19.4 µM)
  MIC: 8 µg/mL (≈ 19.4 µM)
Candida albicans [2]
  MFC: 32 µg/mL (≈ 77.6 µM)
  MIC: 32 µg/mL (≈ 77.6 µM)
[3]; FLC:INH combination
  FICI: 1.5
  INH FD (MIC-MICc fold decrease): 1
[3]; [19]
  INH MICc: 32
[3]; [20]
  FLC FD (MIC-MICc fold decrease): 2
[3]; ITR:INH combination
  FICI: 2
  INH FD (MIC-MICc fold decrease): 1
[3]; [21]
  INH MICc: 32
[3]; [22]
  ITR FD (MIC-MICc fold decrease): 1
[3]; KET:INH combination
  FICI: 1.13
  INH FD (MIC-MICc fold decrease): 1
[3]; [23]
  INH MICc: 32
[3]; [24]
  KET FD (MIC-MICc fold decrease): 8
Cryptococcus neoformans [4]; FLC:INH combination
  FICI: 1.5
  INH FD (MIC-MICc fold decrease): 2
Cryptococcus neoformans [4]; [19]
  INH MICc: 32
Cryptococcus neoformans [4]; [20]
  FLC FD (MIC-MICc fold decrease): 1
Cryptococcus neoformans [4]; ITR:INH combination
  FICI: 1.5
  INH FD (MIC-MICc fold decrease): 2
Cryptococcus neoformans [4]; [21]
  INH MICc: 32
Cryptococcus neoformans [4]; [22]
  ITR FD (MIC-MICc fold decrease): 1
Cryptococcus neoformans [4]; KET:INH combination
  FICI: 1.5
  INH FD (MIC-MICc fold decrease): 2
Cryptococcus neoformans [4]; [23]
  INH MICc: 32
Cryptococcus neoformans [4]; [24]
  KET FD (MIC-MICc fold decrease): 1
Saccharomyces cerevisiae [5]; [25]
  FICI (FLC:INH): 1
Saccharomyces cerevisiae [5]; [26]
  FICI (ITR:INH): 2.25
Saccharomyces cerevisiae [5]; [27]
  FICI (KET:INH): 1
Saccharomyces cerevisiae [5]; [28]
  INH MICc (FLC:INH): 4
Saccharomyces cerevisiae [5]; [29]
  INH MICc (ITR:INH): 2
Saccharomyces cerevisiae [5]; [30]
  INH MICc (KET:INH): 4
Saccharomyces cerevisiae [5]; [31]
  FLC FD (FLC:INH): 2
Saccharomyces cerevisiae [5]; [32]
  ITR FD (ITR:INH): -2
Saccharomyces cerevisiae [5]; [33]
  KET FD (KET:INH): 2
Saccharomyces cerevisiae [5]; [34]
  INH FD (FLC:INH): 2
Saccharomyces cerevisiae [5]; [35]
  INH FD (ITR:INH): 4
Saccharomyces cerevisiae [5]; [36]
  INH FD (KET:INH): 2
Candida glabrata [6]; FLC:INH combination
  FICI: 3
  INH FD (MIC-MICc fold decrease): 1
Candida glabrata [6]; [19]
  INH MICc: 16
Candida glabrata [6]; [20]
  FLC FD (MIC-MICc fold decrease): 1
Candida glabrata [6]; ITR:INH combination
  FICI: 1
  INH FD (MIC-MICc fold decrease): 4
Candida glabrata [6]; [21]
  INH MICc: 4
Candida glabrata [6]; [22]
  ITR FD (MIC-MICc fold decrease): 2
Candida glabrata [6]; KET:INH combination
  FICI: 1
  INH FD (MIC-MICc fold decrease): 4
Candida glabrata [6]; [23]
  INH MICc: 4
Candida glabrata [6]; [24]
  KET FD (MIC-MICc fold decrease): 2
Candida albicans [7]; FLC:INH combination
  FICI: 1.25
  INH FD (MIC-MICc fold decrease): 4
Candida albicans [7]; [19]
  INH MICc: 8
Candida albicans [7]; [20]
  FLC FD (MIC-MICc fold decrease): 1
Candida albicans [7]; ITR:INH combination
  FICI: 1.25
  INH FD (MIC-MICc fold decrease): 4
Candida albicans [7]; [21]
  INH MICc: 8
Candida albicans [7]; [22]
  ITR FD (MIC-MICc fold decrease): 1
Candida albicans [7]; KET:INH combination
  FICI: 1.25
  INH FD (MIC-MICc fold decrease): 4
Candida albicans [7]; [23]
  INH MICc: 8
Candida albicans [7]; [24]
  KET FD (MIC-MICc fold decrease): 1
Aspergillus flavus [8]; [25]
  FICI (FLC:INH): 2
Aspergillus flavus [8]; [26]
  FICI (ITR:INH): 1.25
Aspergillus flavus [8]; [27]
  FICI (KET:INH): 0.75
Aspergillus flavus [8]; [28]
  INH MICc (FLC:INH): 256
Aspergillus flavus [8]; [29]
  INH MICc (ITR:INH): 64
Aspergillus flavus [8]; [30]
  INH MICc (KET:INH): 64
Aspergillus flavus [8]; [31]
  FLC FD (FLC:INH): 1
Aspergillus flavus [8]; [32]
  ITR FD (ITR:INH): 1
Aspergillus flavus [8]; [33]
  KET FD (KET:INH): 2
Aspergillus flavus [8]; [34]
  INH FD (FLC:INH): 1
Aspergillus flavus [8]; [35]
  INH FD (ITR:INH): 4
Aspergillus flavus [8]; [36]
  INH FD (KET:INH): 4
Aspergillus fumigatus [9]; [25]
  FICI (FLC:INH): 1.25
Aspergillus fumigatus [9]; [26]
  FICI (ITR:INH): 0.53
Aspergillus fumigatus [9]; [27]
  FICI (KET:INH): 1.5
Aspergillus fumigatus [9]; [28]
  INH MICc (FLC:INH): 64
Aspergillus fumigatus [9]; [29]
  INH MICc (ITR:INH): 2
Aspergillus fumigatus [9]; [30]
  INH MICc (KET:INH): 64
Aspergillus fumigatus [9]; [31]
  FLC FD (FLC:INH): 4
Aspergillus fumigatus [9]; [32]
  ITR FD (ITR:INH): 2
Aspergillus fumigatus [9]; [33]
  KET FD (KET:INH): 2
Aspergillus fumigatus [9]; [34]
  INH FD (FLC:INH): 1
Aspergillus fumigatus [9]; [35]
  INH FD (ITR:INH): 32
Aspergillus fumigatus [9]; [36]
  INH FD (KET:INH): 1
Trichophyton rubrum [10]; [25]
  FICI (FLC:INH): 2.25
Trichophyton rubrum [10]; [26]
  FICI (ITR:INH): 2.13
Trichophyton rubrum [10]; [27]
  FICI (KET:INH): 2.25
Trichophyton rubrum [10]; [28]
  INH MICc (FLC:INH): 32
Trichophyton rubrum [10]; [29]
  INH MICc (ITR:INH): 32
Trichophyton rubrum [10]; [30]
  INH MICc (KET:INH): 32
Trichophyton rubrum [10]; [31]
  FLC FD (FLC:INH): 4
Trichophyton rubrum [10]; [32]
  ITR FD (ITR:INH): 8
Trichophyton rubrum [10]; [33]
  KET FD (KET:INH): 4
Trichophyton rubrum [10]; [34]
  INH FD (FLC:INH): -2
Trichophyton rubrum [10]; [35]
  INH FD (ITR:INH): -2
Trichophyton rubrum [10]; [36]
  INH FD (KET:INH): -2
HEK-293T cells; HEK-293T cells, read-out: IC50
  IC50: 9.09 µg/mL (≈ 22 µM)
HEK-293T cells; read-out: HEK IC50
  IC50: 9.09 µg/mL (≈ 22 µM)
Eight fungal species [11]; across eight species, read-out: Geometric mean MFC
  MFC: 83 µg/mL (≈ 201 µM)
Eight fungal species [11]; geometric mean across eight species, read-out: GM fungal MIC
  MIC: 29.3 µg/mL (≈ 71 µM)
Eight fungal species [11]; read-out: Geometric mean MIC
  MIC: 29.3 µg/mL (≈ 71 µM)
Eight fungal species [12]; any of the azole drugs in any species tested
  antagonism with azole drugs: no antagonism
Eight fungal species [12]; geometric mean MIC in combination with azoles
  GM fungal MICc: 18
[13]
  MFC: 128 µg/mL (≈ 310 µM)
  MIC: 8 µg/mL (≈ 19.4 µM)
Cryptococcus neoformans [14]
  MFC: 64 µg/mL (≈ 155 µM)
  MIC: 16 µg/mL (≈ 38.8 µM)
Candida glabrata [15]
  MFC: 64 µg/mL (≈ 155 µM)
  MIC: 32 µg/mL (≈ 77.6 µM)
Aspergillus flavus [16]
  MFC: > 128 µg/mL
  MIC: > 128 µg/mL
Aspergillus fumigatus [17]
  MFC: > 128 µg/mL
  MIC: 128 µg/mL (≈ 310 µM)
Trichophyton rubrum [18]
  MFC: > 128 µg/mL
  MIC: 16 µg/mL (≈ 38.8 µM)
